Measured values as given in ChEMBL document CHEMBL5303573, “Mapping human microbiome drug metabolism by gut bacteria and their genes” (Nature, 2019).

Tests used:
[1] = The drug is tested on Enterococcus faecalis strain: V583 for biotransformation. The drug concentrations were measured before and after a 12-h incubation by liquid-chromatography-coupled mass spectrometry (LC–MS); settings: 2 µM
[2] = bacteroides eggerthii, 12 h, 2 µM
Description: The drug is tested on Bacteroides eggerthii strain: DSM20697 for biotransformation. The drug concentrations were measured before and after a 12-h incubation by liquid-chromatography-coupled mass spectrometry (LC–MS)

[3] = The drug is tested on Bacteroides cellulosilyticus strain: DSM14838 for biotransformation. The drug concentrations were measured before and after a 12-h incubation by liquid-chromatography-coupled mass spectrometry (LC–MS); settings: 2 µM
[4] = The drug is tested on Clostridium sp. strain: fecal isolate for biotransformation. The drug concentrations were measured before and after a 12-h incubation by liquid-chromatography-coupled mass spectrometry (LC–MS); settings: 2 µM
[5] = bacteroides stercoris, 12 h, 2 µM
Description: The drug is tested on Bacteroides stercoris strain: ATCC43183 for biotransformation. The drug concentrations were measured before and after a 12-h incubation by liquid-chromatography-coupled mass spectrometry (LC–MS)

[6] = limosilactobacillus reuteri cf48-3a, 12 h, 2 µM
Description: The drug is tested on Lactobacillus reuteri CF48-3A strain: BEI HM-102 for biotransformation. The drug concentrations were measured before and after a 12-h incubation by liquid-chromatography-coupled mass spectrometry (LC–MS)

[7] = victivallis vadensis, 12 h, 2 µM
Description: The drug is tested on Victivallis vadensis strain: ATCC BAA-548 for biotransformation. The drug concentrations were measured before and after a 12-h incubation by liquid-chromatography-coupled mass spectrometry (LC–MS)

[8] = The drug is tested on Bacteroides fragilis strain: ATCC43859 for biotransformation. The drug concentrations were measured before and after a 12-h incubation by liquid-chromatography-coupled mass spectrometry (LC–MS); settings: 2 µM
[9] = enterocloster bolteae, 12 h, 2 µM
Description: The drug is tested on Clostridium bolteae strain: ATCCBAA-613 for biotransformation. The drug concentrations were measured before and after a 12-h incubation by liquid-chromatography-coupled mass spectrometry (LC–MS)

[10] = The drug is tested on Ruminococcus gnavus strain: ATCC29149 for biotransformation. The drug concentrations were measured before and after a 12-h incubation by liquid-chromatography-coupled mass spectrometry (LC–MS); settings: mediterraneibacter gnavus, 2 µM
[11] = The drug is tested on Bifidobacterium longum subsp. Infantis strain: CCUG52486 for biotransformation. The drug concentrations were measured before and after a 12-h incubation by liquid-chromatography-coupled mass spectrometry (LC–MS); settings: 2 µM
[12] = The drug is tested on Collinsella intestinalis strain: DSM13280 for biotransformation. The drug concentrations were measured before and after a 12-h incubation by liquid-chromatography-coupled mass spectrometry (LC–MS); settings: 2 µM
[13] = The drug is tested on Providencia rettgeri strain: DSM1131 for biotransformation. The drug concentrations were measured before and after a 12-h incubation by liquid-chromatography-coupled mass spectrometry (LC–MS); format: ADME; design: dose 2 uM, timepoint 0 vs 12 hours; settings: 2 µM
[14] = segatella copri, 12 h, 2 µM
Description: The drug is tested on Prevotella copri strain: DSM18205 for biotransformation. The drug concentrations were measured before and after a 12-h incubation by liquid-chromatography-coupled mass spectrometry (LC–MS)

[15] = The drug is tested on Providencia stuartii strain: ATCC25827 for biotransformation. The drug concentrations were measured before and after a 12-h incubation by liquid-chromatography-coupled mass spectrometry (LC–MS); settings: 2 µM
[16] = bacteroides thetaiotaomicron, 12 h, 2 µM
Description: The drug is tested on Bacteroides thetaiotaomicron strain: VPI-5482 for biotransformation. The drug concentrations were measured before and after a 12-h incubation by liquid-chromatography-coupled mass spectrometry (LC–MS)

[17] = The drug is tested on Blautia hansenii strain: DSM20583 for biotransformation. The drug concentrations were measured before and after a 12-h incubation by liquid-chromatography-coupled mass spectrometry (LC–MS); settings: 2 µM
[18] = The drug is tested on Bacteroides fragilis strain: HMW615 for biotransformation. The drug concentrations were measured before and after a 12-h incubation by liquid-chromatography-coupled mass spectrometry (LC–MS); settings: 2 µM
[19] = The drug is tested on Eubacterium hallii strain: DSM3353 for biotransformation. The drug concentrations were measured before and after a 12-h incubation by liquid-chromatography-coupled mass spectrometry (LC–MS); settings: anaerobutyricum hallii, 2 µM
[20] = The drug is tested on Clostridium asparagiforme strain: DSM15981 for biotransformation. The drug concentrations were measured before and after a 12-h incubation by liquid-chromatography-coupled mass spectrometry (LC–MS); format: ADME; design: dose 2 uM, timepoint 0 vs 12 hours; settings: enterocloster asparagiformis, 2 µM

Bacterial Biotransformation [1]	Bacterial Biotransformation [2]	Bacterial Biotransformation [3]	Bacterial Biotransformation [5]	Bacterial Biotransformation [6]	Bacterial Biotransformation [7]	Bacterial Biotransformation [8]	Bacterial Biotransformation [9]	Bacterial Biotransformation [10]	Bacterial Biotransformation [11]	Bacterial Biotransformation [12]	Bacterial Biotransformation [14]	Bacterial Biotransformation [15]	Bacterial Biotransformation [16]	Bacterial Biotransformation [18]	Bacterial Biotransformation [19]	Bacterial Biotransformation [20]	Compound	Bacterial Biotransformation [4]	Bacterial Biotransformation [13]	Bacterial Biotransformation [17]
Compound NOT metabolized	Compound metabolized	Compound metabolized	Compound metabolized	Compound NOT metabolized	Compound NOT metabolized	Compound metabolized	Compound NOT metabolized	Compound NOT metabolized	Compound NOT metabolized	Compound metabolized	Compound metabolized	Compound metabolized	Compound metabolized	Compound metabolized	Compound NOT metabolized		CCOC(=O)[C@H](CCc1ccccc1)N[C@@H](C)C(=O)N1Cc2ccccc2C[C@H]1C(=O)O	Compound metabolized	Compound NOT metabolized	Compound metabolized
Compound metabolized	Compound NOT metabolized	Compound metabolized	Compound metabolized	Compound metabolized	Compound NOT metabolized	Compound NOT metabolized	Compound metabolized	Compound NOT metabolized	Compound metabolized	Compound metabolized	Compound metabolized	Compound metabolized	Compound metabolized	Compound NOT metabolized	Compound metabolized	Compound metabolized	COc1ccc2c(c1OC)C(=O)O[C@@H]2[C@H]1c2c(cc3c(c2OC)OCO3)CCN1C [NOSCAPINE]		Compound metabolized	
		Compound metabolized	Compound metabolized	Compound metabolized	Compound metabolized	Compound metabolized	Compound metabolized	Compound NOT metabolized	Compound metabolized		Compound metabolized	Compound metabolized			Compound metabolized	Compound metabolized	CCCc1nc(C(C)(C)O)c(C(=O)OCc2oc(=O)oc2C)n1Cc1ccc(-c2ccccc2-c2nnn[nH]2)cc1 [OLMESARTAN MEDOXOMIL]	Compound metabolized		
Compound metabolized	Compound metabolized	Compound metabolized	Compound metabolized	Compound NOT metabolized	Compound metabolized	Compound metabolized	Compound metabolized	Compound NOT metabolized	Compound metabolized	Compound metabolized	Compound metabolized	Compound metabolized	Compound metabolized	Compound metabolized	Compound NOT metabolized	Compound metabolized	CC(=O)OCC(=O)NCCCOc1cccc(CN2CCCCC2)c1 [ROXATIDINE ACETATE]		Compound metabolized	
Compound NOT metabolized	Compound metabolized	Compound metabolized	Compound metabolized	Compound metabolized	Compound NOT metabolized	Compound NOT metabolized	Compound metabolized	Compound NOT metabolized	Compound NOT metabolized	Compound NOT metabolized	Compound metabolized	Compound metabolized	Compound NOT metabolized	Compound NOT metabolized	Compound NOT metabolized		CN1CCN(CC/C=C2/c3ccccc3Sc3ccc(S(=O)(=O)N(C)C)cc32)CC1 [THIOTHIXENE]	Compound metabolized		Compound metabolized

Compound	Bacterial Biotransformation [1]	Bacterial Biotransformation [2]	Bacterial Biotransformation [3]	Bacterial Biotransformation [5]	Bacterial Biotransformation [6]	Bacterial Biotransformation [7]	Bacterial Biotransformation [8]	Bacterial Biotransformation [9]	Bacterial Biotransformation [10]	Bacterial Biotransformation [11]	Bacterial Biotransformation [12]	Bacterial Biotransformation [14]	Bacterial Biotransformation [15]	Bacterial Biotransformation [16]	Bacterial Biotransformation [18]	Bacterial Biotransformation [19]	Bacterial Biotransformation [20]	Bacterial Biotransformation [4]	Bacterial Biotransformation [13]	Bacterial Biotransformation [17]
CN1CCC(=C2c3ccccc3CCc3cccnc32)CC1.O=C(O)/C=C\C(=O)O.O=C(O)/C=C\C(=O)O [AZATADINE MALEATE]	Compound NOT metabolized	Compound NOT metabolized	Compound NOT metabolized	Compound NOT metabolized	Compound NOT metabolized	Compound NOT metabolized		Compound NOT metabolized	Compound NOT metabolized	Compound NOT metabolized	Compound NOT metabolized	Compound NOT metabolized	Compound NOT metabolized	Compound NOT metabolized		Compound NOT metabolized	Compound NOT metabolized	Compound NOT metabolized	Compound NOT metabolized	
CN(C)C(=O)Oc1cc(OC(=O)N(C)C)cc(C(O)CNC(C)(C)C)c1 (stereo not given) [BAMBUTEROL]	Compound NOT metabolized	Compound NOT metabolized		Compound NOT metabolized	Compound NOT metabolized	Compound NOT metabolized	Compound NOT metabolized	Compound NOT metabolized	Compound NOT metabolized	Compound NOT metabolized	Compound NOT metabolized	Compound NOT metabolized	Compound NOT metabolized	Compound NOT metabolized	Compound NOT metabolized	Compound NOT metabolized	Compound NOT metabolized	Compound NOT metabolized	Compound NOT metabolized	Compound NOT metabolized
CC(C)(C)NCC(O)c1cc(Cl)c(N)c(Cl)c1 (stereo not given) [CLENBUTEROL]	Compound NOT metabolized	Compound NOT metabolized	Compound NOT metabolized	Compound NOT metabolized	Compound NOT metabolized	Compound NOT metabolized	Compound NOT metabolized	Compound NOT metabolized	Compound NOT metabolized	Compound NOT metabolized	Compound NOT metabolized	Compound NOT metabolized	Compound NOT metabolized	Compound NOT metabolized		Compound NOT metabolized		Compound NOT metabolized	Compound NOT metabolized	Compound NOT metabolized
